Measured values published in patent US10683278B2 (JINAN UNIVERSITY, priority 2015, dated 2020).

What was measured:
MDA-MB-231 cells = assay: Wound-healing and transwell invasion and migration of MDA-MB-231 cells; assay type: cell-based; conditions: FIGS. 5 and 6
Description: Compounds were tested for their effects on EMT using routine transwell and wound-healing experiments.
MDA-MB-231 breast cancer cells were inoculated into a 6-well plate in 5×10^5 cells/well, and when the cells occupied 100% of the medium, the medium was removed, and a scratch of a constant width was drawn in the middle of the monolayer cell with a 200-μL pipette tip. The cells were washed three times with phosphate buffered saline (PBS) to remove cell debris, followed by addition of 2% FBS with or without TGF-β1 (10 ng/mL) and substances to be tested at different concentrations, and cultured in RPMI-1640 for 24 hours. At the time points of 0 and 24 hour, three scratch areas were selected, and examined and photographed using a phase contrast inverted fluorescence microscopy (CKX41; Olympus) and Image-ProPlus image capture software. The degree of scratch closure was calculated using Adobe Photoshop 7.0.1 software (Adobe Systems Inc., San Jose, Calif.). The final result is determined by averaging three results. […]
1. Cells were trypsinized and centrifuged, then resuspended and counted, and resuspended with serum-free medium, diluted to 5×10^4 to 5×10^5 cells/mL; AXL inhibitor solution at different concentrations were prepared with the cell suspension, and added into the upper chamber, and 800 μL of a medium containing 10% FBS was added into the lower chamber. […]

[1] = system: AXL phosphorylation in MDA-MB-231 cells; assay: Western Blot, AXL kinase phosphorylation of MDA-MB-231 cells; assay type: cell-based; conditions: FIG. 1
Description: Effect of quinolone derivatives on AXL kinase phosphorylation of MDA-MB-231 and 4T1 cells A conventional Western Blot was used, which includes four steps: sample preparation; electrophoretic separation; membrane transfer of proteins; and immunological hybridization and developing (protein detection).
1. MDA-MB-231 cells were seeded into a 6-well plate at an appropriate density, cultured for 24 hours until the cell confluency reached about 80%, drug-containing medium at corresponding concentration was added respectively, and co-cultured for 2-24 hours.
2. The medium was discarded at a predetermined time point, the well plate was washed twice with precooled PBS at 4° C. and the residual liquid was washed away.
3. 1×SDS sample buffer (CST recommended, 6-well plate, 300 μL) was added, scraping all the cells in the dish with a cell scraper, and transferring same to a 1.5 mL of EP tube (operated on ice).
4. The cell lysate was sonicated for 10-15 seconds to cut off DNA, so as to reduce sample viscosity.
5. Boil the sample for 5 min.
6. 12000 g of samples were centrifuged at 4° C. for 5 min, and the supernatant was taken and stored at −20° C. or −80° C. for western blot analysis.
1. Electrophoretic separation: 15-20 μL of 8%-12% SDS-PAGE polyacrylamide gel was loaded, with 90 v electrophoresis for the upper gel, and 120 v electrophoresis for the lower gel.
2. Assembly and transferring of the sandwich: submerging the polyacrylamide gel in transfer buffer and equilibrated for 10 min. According to the size of polyacrylamide gel, PVDF membrane (Mili pore) and 6 pieces of filter paper were cut out and placed in transfer buffer and equilibrated for 10 min. The PVDF membrane needs to be immersed in methanol for 3-5 seconds. Placed in such sequence as sponge→3 layers of filter paper→gel→membrane→3 layers of filter paper→sponge. Ensure there are no bubbles.
3. Membrane transferring: the transfer tank was placed in an ice bath, and the sandwich was added. Ensure the gel facing the negative electrode, and the PVDF facing the positive electrode. 1× membrane transferring buffer was added and placed under the constant pressure, subjecting same to membrane transferring at 110 V for 0.5 to 2 h depending on the molecular weight of the protein to be tested.
4. Blocking: the PVDF membrane was removed after the membrane transferring, blocked with blocking solution (1×TBS, containing 0.5% Tween-20 and 5% skim milk powder), and shaked slowly for 2 h on a horizontal shaker.
5. Incubation of the primary antibody: after blocking, diluting the primary antibody (antibody AXL, phosphor-AXL, AKT, phosphor-AKT, GAPDH, etc.) at 1: 200-1:1000. The PVDF membrane and the antibody were incubated overnight in a wet box at 4° C. to allow sufficient binding of the antibody to the protein of interest.
6. […]

4T1 cells = assay: In vivo metastasis of 4T1 xenografts; conditions: BALB/c mice, 4T1 subcutaneous, oral 30 and 90 mg/kg per day, 21 days
Description: BALB/c mice were selected and 4T1 cells (0.5×10^6/mouse) were inoculated subcutaneously on their right sides. Twenty-four days after inoculation, the mice were randomly divided into treatment and control groups (10 in each group). The mice in each group were orally administered for 21 days, and the drug dose in the treatment group was 30 mg/kg and 90 mg/kg of compound 2-lin per day, respectively. The mice were measured for body weight and tumor volume every two days. After the mice reached the end of administration, the liver tissues of mice were excised and collected, fixed with 10% formaldehyde solution, embedded in paraffin, sectioned, and stained with eosin. Microscopic examination of micrometastases in at least three fields of view was performed and the number of liver micrometastases was calculated.
The tumor volume is calculated by the formula of TV=W^2(L/2), wherein L is the length and W is the width.

| SMILES | invasion and migration of MDA-MB-231 cells induced by TGF-β1 (MDA-MB-231 cells) | phosphorylation of AXL [1] | phosphorylation of downstream signaling protein AKT [1] | growth of in situ tumor (4T1 cells) | number and size of liver metastasis (4T1 cells) |
| --- | --- | --- | --- | --- | --- |
| CCc1ccc2c(c1)c(=O)c(C(=O)Nc1ccc(Oc3ncnc4[nH]cc(-c5ccccc5)c34)c(F)c1)c(C)n2C [TL4800075, 6-ethyl-N-(3-fluoro-4-((5-phenyl-7H-pyrrolo[2,3-d]pyrimidin-4-yl)oxy)phenyl)-1,2-dimethyl-4-oxo-1,4-dihydroquinoline-3-carboxamide] | inhibit the invasion and migration of breast cancer MDA-MB-231 cells induced by TGF-β1 in a dose-dependent manner | significantly inhibit | significantly inhibit | – | – |
| CCc1ccc2c(c1)c(=O)c(C(=O)Nc1ccc(Oc3ncnc4cc(OC)c(OC)cc34)c(F)c1)c(C)n2C [TL4800191, N-(4-(6,7-dimethoxyquinazolin-4-yloxy)-3-fluorophenyl)-6-ethyl-1,2-dimethyl-4-oxo-1,4-dihydroquinoline-3-carboxamide] | inhibit the invasion and migration of breast cancer MDA-MB-231 cells induced by TGF-β1 in a dose-dependent manner | significantly inhibit | significantly inhibit | no obvious inhibitory effect | inhibit the number and size of liver metastasis in a dose-dependent manner |
